In general, IC50 refers to the concentration that gives 50% inhibition. Usually Kp stands for tissue or fluid exposure divided by exposure in the circulation. A word on the Emax: it is the size of the effect at its maximum, as opposed to the concentration needed. Broadly, the EC50 is the concentration giving half of the maximal effect.

Data set [1] is described as follows: Fraction unbound in cyno plasma. Type of data set: in vitro ADME. Particulars: cynomolgus monkey, read-out: Cyno Fu (plasma). How it is done: (§1) Compound 70 was tested in several in in vitro assays to investigate both metabolism and pharmacokinetics. These assays may be performed according to known methods as generally described in the following references: Conde-Ceide et al. ACS Med. Chem. Lett. 2015, 6, 716-720; Morris et al. J. Med. Chem. 2014, 57, 10192-10197; and Bubser et al. ACS Chem. Neurosci. 2014, 5, 920-942.

The target in data set [2] is P450 3A4 (Homo sapiens, UniProt P08684). Briefly: P450 3A4 inhibition. It is filed as in vitro ADME. The method, then: as §1
P450 3A4, sequence (P08684 whole entry): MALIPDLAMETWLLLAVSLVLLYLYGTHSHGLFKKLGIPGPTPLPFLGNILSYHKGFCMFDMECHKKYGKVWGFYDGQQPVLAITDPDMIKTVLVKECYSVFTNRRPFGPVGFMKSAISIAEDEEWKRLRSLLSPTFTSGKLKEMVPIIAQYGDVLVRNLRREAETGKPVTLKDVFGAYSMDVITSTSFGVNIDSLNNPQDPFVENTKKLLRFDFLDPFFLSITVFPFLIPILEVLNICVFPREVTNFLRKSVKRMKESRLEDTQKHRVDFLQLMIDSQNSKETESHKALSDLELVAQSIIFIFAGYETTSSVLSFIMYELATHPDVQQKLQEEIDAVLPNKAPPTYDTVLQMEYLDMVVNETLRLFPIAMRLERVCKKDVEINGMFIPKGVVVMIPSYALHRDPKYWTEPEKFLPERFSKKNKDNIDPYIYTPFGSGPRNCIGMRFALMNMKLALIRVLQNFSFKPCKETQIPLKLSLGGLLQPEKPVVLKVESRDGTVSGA
Data set [3] concerns the target P450 2D6 (Homo sapiens, UniProt P10635). The data set is described as follows: P450 2D6 inhibition. It is filed as in vitro ADME. The method, then: as §1
Data set [4] can be described thus: In vivo pharmacokinetics in rat. The method, then:
(§2) Compound 70 was tested in several in vivo assays and the pharmacokinetic parameters listed in the following table may be determined from pharmacokinetic studies in rat, dog, or cynomolgus monkey, according to known methods as generally described in the following references: Garrison et al. J. Med. Chem. 2022, 65, 6273-6286; Felts et al. J. Med. Chem 2017, 60, 5072-5085; and Yu et al. J. Med. Chem. 2021, 64, 4709-4729.

Data set [5] in a line: In vivo pharmacokinetics in dog. The method, then:
as §2

Data set [6] addresses T1, Human M4 (Homo sapiens, UniProt P08173).
T1 sequence (P08173 1-479): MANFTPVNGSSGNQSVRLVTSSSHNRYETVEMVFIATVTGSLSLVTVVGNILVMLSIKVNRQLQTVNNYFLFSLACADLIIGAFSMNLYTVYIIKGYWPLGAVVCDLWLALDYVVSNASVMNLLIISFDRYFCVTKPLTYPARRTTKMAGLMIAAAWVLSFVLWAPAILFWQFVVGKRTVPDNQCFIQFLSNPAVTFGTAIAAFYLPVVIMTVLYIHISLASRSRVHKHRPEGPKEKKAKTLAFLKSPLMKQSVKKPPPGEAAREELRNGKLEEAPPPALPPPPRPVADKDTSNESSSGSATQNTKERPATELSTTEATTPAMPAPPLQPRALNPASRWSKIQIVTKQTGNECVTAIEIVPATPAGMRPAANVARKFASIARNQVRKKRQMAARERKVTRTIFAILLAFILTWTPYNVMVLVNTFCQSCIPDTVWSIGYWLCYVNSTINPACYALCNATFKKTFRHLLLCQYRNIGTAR
Briefly: M4 cell-based functional assay (calcium mobilization). Further details: expressed in transfected cells. The method, boiled down:
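CHO-K1 cells stably co-expressing hM4 and chimeric Gqi5, loaded with Fluo-4-AM (1.15 μM final, 45 min, 37° C). Compound added ~140 s before EC20 then EC80 acetylcholine; calcium flux by kinetic fluorescence (ex 480/em 530 nm), expressed as fold over basal and normalized to maximal ACh response (1 mM).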
A general note: A change in cytosolic calcium serves as a functional read-out for many receptors and channels.

Data set [7] has as its system male Sprague-Dawley rats. The data set is described as follows: Amphetamine-induced hyperlocomotion in rats. The settings on record: 100 mg/kg i.p., amphetamine 0.25 mg/kg s.c., p<0.001.

P450 2D6, sequence (P10635 whole entry): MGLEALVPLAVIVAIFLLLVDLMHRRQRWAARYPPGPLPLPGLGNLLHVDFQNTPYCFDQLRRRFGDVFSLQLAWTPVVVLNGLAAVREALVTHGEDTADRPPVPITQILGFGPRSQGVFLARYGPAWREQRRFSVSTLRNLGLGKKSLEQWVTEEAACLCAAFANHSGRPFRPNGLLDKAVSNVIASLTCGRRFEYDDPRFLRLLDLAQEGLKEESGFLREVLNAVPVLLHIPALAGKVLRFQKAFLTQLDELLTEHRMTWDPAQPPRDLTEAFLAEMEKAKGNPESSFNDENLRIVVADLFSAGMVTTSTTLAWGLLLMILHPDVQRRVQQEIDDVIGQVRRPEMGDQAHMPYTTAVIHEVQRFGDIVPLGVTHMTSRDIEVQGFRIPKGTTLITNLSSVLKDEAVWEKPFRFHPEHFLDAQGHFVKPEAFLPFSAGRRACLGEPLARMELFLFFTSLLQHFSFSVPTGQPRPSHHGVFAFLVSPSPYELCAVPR

Regarding `Cc1c(N2CCc3nc(C4(F)CC4)sc3C2)nc2nn(C)c(=O)n2c1C` [Compound 70, 7-(2-(1-fluorocyclopropyl)-6,7-dihydrothiazolo[5,4-c]pyridin-5(4H)-yl)-2,5,6-trimethyl-[1,2,4]triazolo[4,3-a]pyrimidin-3(2H)-one], the fraction unbound in data set [1] was found to be 0.177. For the same molecule, the IC50 in data set [2] and in data set [3] was more than 30 µM each time. This molecule showed a Kp in data set [4] (brain / plasma) of 1.4. Besides, in data set [4] (brain / plasma, unbound), the Kp uu was found to be 0.3. Further, the “Rat oral F (3 mg/kg)” value in data set [4] (oral 3 mg/kg) is on record as more than 100%. Besides, the clearance in data set [4] (plasma, read-out: Rat CLp) was found to be 4.3 mL/min/kg; in data set [5] (plasma, read-out: Dog CLp), 24.4 mL/min/kg. Further, the half-life in data set [4] (plasma, read-out: Rat Elim. t1/2 (converted)) is 3.1 h; in data set [5] (plasma, read-out: Dog Elim. t1/2 (converted)), 2.1 h. The Vd in data set [4] (plasma, read-out: Rat Vss) came to 0.7 L/kg; in data set [5] (plasma, read-out: Dog Vss), 3.1 L/kg. Moreover, the “Dog oral F (3 mg/kg)” value in data set [5] (oral 3 mg/kg) is given as 83%. In addition, in data set [6] (% ACh maximum at 30 μM), the Emax at 30 µM was determined as 77%. The EC50 in data set [6] (CHO-K1 hM4-Gqi5 cells, calcium flux, increase in EC20 acetylcholine response) amounted to 0.004 µM. Also, the “percent reversal of amphetamine-induced hyperlocomotion” value in data set [7] was 61.1%.
